Assay results reported in ChEMBL document CHEMBL3046531, “Analgesic study of novel pyrimidine derivatives linked with coumarin moiety” (2012).

What was measured:
Type in all cases: functional
[1] = system: Mus musculus; experiment: Analgesic activity in Mus musculus Swiss albino (mouse) assessed as protection against acetic acid-induced writhing response at 20 mg/kg, po administered 30 min before acetic acid challenge measured at 2 hr after challenge
[2] = system: Mus musculus; experiment: Analgesic activity in Mus musculus Swiss albino (mouse) assessed as protection against acetic acid-induced writhing response at 20 mg/kg, po administered 30 min before acetic acid challenge measured at 1 hr after challenge
[3] = system: Mus musculus; experiment: Analgesic activity in Mus musculus Swiss albino (mouse) assessed as protection against acetic acid-induced writhing response at 20 mg/kg, po administered 30 min before acetic acid challenge measured at 0.5 hr after challenge

Row | Structure (SMILES) | Activity [1] [%] | Activity [2] [%] | Activity [3] [%]
1 | COc1cccc(-c2cc(-c3cc4ccccc4oc3=O)nc(N)n2)c1 | 49.3 | 53.52 | 46.51
2 | Nc1nc(-c2ccc(Br)cc2)cc(-c2cc3ccccc3oc2=O)n1 | 26.59 | 29.41 | 28.16
3 | COc1ccccc1-c1cc(-c2cc3ccccc3oc2=O)nc(N)n1 | 33.79 | 35.58 | 35.44
4 | Nc1nc(-c2cccc(Br)c2)cc(-c2cc3ccccc3oc2=O)n1 | 31.57 | 33.52 | 25.94
5 | Nc1nc(-c2ccccc2Br)cc(-c2cc3ccccc3oc2=O)n1 | 27.7 | 30.58 | 23.41
6 | Nc1nc(-c2ccc(Cl)cc2)cc(-c2cc3ccccc3oc2=O)n1 | 10.8 | 12.35 | 9.49
7 | Nc1nc(-c2cccc(Cl)c2)cc(-c2cc3ccccc3oc2=O)n1 | 56.5 | 60.58 | 52.21
8 | Nc1nc(-c2ccccc2Cl)cc(-c2cc3ccccc3oc2=O)n1 | 11.63 | 12.05 | 8.22
9 | O=C([O-])Cc1ccccc1Nc1c(Cl)cccc1Cl.[Na+] [DICLOFENAC SODIUM] | 93.35 | 96.76 | 91.13
